The values below come from PubChem BioAssay AID330 (DTP/NCI, 2004).

Structures are written as SMILES. Where “and” joins values, the source holds several entries; their conditions need not be identical. Identical values can stand only once. Toxic doses and inconclusive results are not listed.

This test deals with P388 leukemia ip, CD2F1 mice, survival T/C. Kind of test: NCI In Vivo Anticancer Drug Screen. Data for tumor model P388 Leukemia (intraperitoneal) in CD2F1 (CDF1) mice. As to conditions: endpoint: median survival time, higher = longer survival. The gist of the method:
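Mice carrying the transplanted tumor received test compound or vehicle. Survival was recorded in each group, and the value is the treated-group measurement divided by that of the vehicle-treated control group.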

[1] abbreviates: dose: 50.0 mg/kg/injection, schedule: Q01DX009 (ip), vehicle: Klucel (hydroxypropylcellulose) (HPC).
Where [2] appears, read: dose: 100.0 mg/kg/injection, schedule: Q01DX009 (ip), vehicle: Klucel (hydroxypropylcellulose) (HPC).
[3] abbreviates: dose: 25.0 mg/kg/injection, schedule: Q01DX009 (ip), vehicle: saline.
Where [4] appears, read: dose: 50.0 mg/kg/injection, schedule: Q01DX009 (ip), vehicle: saline.
Where [5] appears, read: dose: 100.0 mg/kg/injection, schedule: Q01DX009 (ip), vehicle: saline.
Where [6] appears, read: dose: 50.0 mg/kg/injection, schedule: Q04DX002 (ip), vehicle: saline with Tween-80.
Setting [7] is: dose: 100.0 mg/kg/injection, schedule: Q04DX002 (ip), vehicle: saline with Tween-80.
Where [8] appears, read: dose: 200.0 mg/kg/injection, schedule: Q04DX002 (ip), vehicle: saline with Tween-80.
Setting [9] is: dose: 12.5 mg/kg/injection, schedule: Q01DX005 (ip), vehicle: saline.
The mark [10] stands for this setting: dose: 200.0 mg/kg/injection, schedule: Q01DX009 (ip), vehicle: saline.

For `O=S1(=O)CCCO1`, the T/C runs as follows: (dose: 100.0 mg/kg/injection, schedule: Q04DX003 (ip), vehicle: saline) 100 % of control; (dose: 200.0 mg/kg/injection, schedule: Q04DX003 (ip), vehicle: saline) 118 % of control.

Take `Cc1ccc(S(=O)(=O)N=S(C)C)cc1`: the T/C is, setting by setting: (dose: 6.25 mg/kg/injection, schedule: Q01DX009 (ip), vehicle: other) 117 % of control; (dose: 12.5 mg/kg/injection, schedule: Q01DX009 (ip), vehicle: other) 107 % of control; (dose: 25.0 mg/kg/injection, schedule: Q01DX009 (ip), vehicle: other) 113 % of control; (dose: 50.0 mg/kg/injection, schedule: Q01DX009 (ip), vehicle: other) 118 % of control; (dose: 50.0 mg/kg/injection, schedule: Q01DX009 (ip), vehicle: saline with Tween-80) 100 % of control; (dose: 100.0 mg/kg/injection, schedule: Q01DX009 (ip), vehicle: saline with Tween-80) 106 % of control. Moreover, the T/C was 111 % of control (dose: 200.0 mg/kg/injection, schedule: Q01DX009 (ip), vehicle: saline with Tween-80) and 116 % of control (dose: 400.0 mg/kg/injection, schedule: Q01DX009 (ip), vehicle: saline with Tween-80).

As for `CN(C)c1ccc(/C=C/c2cc[n+](C)cc2)cc1`, the T/C by setting is: (dose: 2.0 mg/kg/injection, schedule: Q01DX009 (ip), vehicle: saline with Tween-80) 110 % of control; (dose: 2.0 mg/kg/injection, schedule: Q04DX003 (ip), vehicle: saline with Tween-80) 91 % of control; (dose: 4.0 mg/kg/injection, schedule: Q01DX009 (ip), vehicle: saline with Tween-80) 100 % of control; (dose: 4.0 mg/kg/injection, schedule: Q04DX003 (ip), vehicle: saline with Tween-80) 100 % of control; (dose: 8.0 mg/kg/injection, schedule: Q01DX009 (ip), vehicle: saline with Tween-80) 100 % of control; (dose: 8.0 mg/kg/injection, schedule: Q04DX003 (ip), vehicle: saline with Tween-80) 108 % of control.

For `CS(=O)(=O)c1nc(N)c(S(N)(=O)=O)c(N)n1`, the T/C under setting [1] was 108 % of control and the T/C under setting [2] is 111 % of control.

Turning to `CN(C)CCC(CCc1ccccc1)OC(=O)c1ccccc1` (centres undefined), the T/C under setting [3] was 102 % of control, the T/C under setting [4] is 101 % of control and the T/C under setting [5] was 102 % of control.

`Cc1cc(C)n(C2=NC3(C)NC(=O)NC3(C)N2)n1` (centres undefined): the T/C is 98 % of control under setting [6], 94 % of control under setting [7] and 98 % of control under setting [8].

Regarding `Clc1ccc(C(Nc2nncs2)Nc2nncs2)c(Cl)c1`, the T/C is, setting by setting: (dose: 100.0 mg/kg/injection, schedule: Q04DX002 (ip), vehicle: Klucel (hydroxypropylcellulose) (HPC)) 109 % of control; (dose: 200.0 mg/kg/injection, schedule: Q04DX002 (ip), vehicle: Klucel (hydroxypropylcellulose) (HPC)) 114 % of control.

For the compound `C[n+]1cc(-c2ccccc2)cc(-c2ccccc2)c1`, the T/C reads like this: (dose: 3.12 mg/kg/injection, schedule: Q01DX005 (ip), vehicle: Klucel (hydroxypropylcellulose) (HPC)) 104 % of control; (dose: 3.12 mg/kg/injection, schedule: Q01DX005 (ip), vehicle: saline) 103 % of control; (dose: 6.25 mg/kg/injection, schedule: Q01DX005 (ip), vehicle: Klucel (hydroxypropylcellulose) (HPC)) 109 % of control; (dose: 6.25 mg/kg/injection, schedule: Q01DX005 (ip), vehicle: saline with Tween-80) 105 % of control; (dose: 6.25 mg/kg/injection, schedule: Q01DX005 (ip), vehicle: saline) 97 % of control; (dose: 12.5 mg/kg/injection, schedule: Q01DX005 (ip), vehicle: Klucel (hydroxypropylcellulose) (HPC)) 104 % of control. For the same compound, the T/C is 100 % of control (dose: 12.5 mg/kg/injection, schedule: Q01DX005 (ip), vehicle: saline with Tween-80); 96 % of control under setting [9]; 96 % of control (dose: 25.0 mg/kg/injection, schedule: Q01DX005 (ip), vehicle: saline with Tween-80).

Take `O=c1c2sc3ccccc3c2ncn1/N=C/c1cccc(Cl)c1`: the T/C (dose: 50.0 mg/kg/injection, schedule: Q01DX005 (ip), vehicle: Klucel (hydroxypropylcellulose) (HPC)) is 96 % of control; the T/C (dose: 100.0 mg/kg/injection, schedule: Q01DX005 (ip), vehicle: Klucel (hydroxypropylcellulose) (HPC)) was 97 % of control; the T/C (dose: 200.0 mg/kg/injection, schedule: Q01DX005 (ip), vehicle: Klucel (hydroxypropylcellulose) (HPC)) is 88 % of control.

In the case of `CCOC(=O)/C(=C\c1ccccc1)O/C(=C/c1ccccc1)C(=O)OCC`, the T/C was 100 % of control (dose: 12.5 mg/kg/injection, schedule: Q04DX002 (ip), vehicle: saline with Tween-80); 97 % of control (dose: 25.0 mg/kg/injection, schedule: Q04DX002 (ip), vehicle: saline with Tween-80); 99 % of control under setting [6].

As to `O=C(NC(Cc1ccccc1)C(=O)CCC(=O)N1CCCC1C(=O)O)c1ccccc1` (centres undefined), the T/C runs as follows: under setting [6], 103 % of control; under setting [7], 101 % of control; under setting [8], 101 % of control; (dose: 400.0 mg/kg/injection, schedule: Q04DX002 (ip), vehicle: saline with Tween-80) 101 % of control.

As to `Cc1cccc(C(=O)CCN(C)C)c1`, the T/C is 94 % of control (dose: 12.5 mg/kg/injection, schedule: Q01DX009 (ip), vehicle: saline); 99 % of control under setting [3]; 100 % of control and 101 % of control and 108 % of control under setting [4]; 98 % of control under setting [5].

In the case of `Cc1cc(NC(=S)SC(C)C)ccc1Cl`, the T/C was 99 % of control under setting [4], 102 % of control under setting [5] and 102 % of control under setting [10].

Take `Nc1nc(N)c2cc(CNc3ccc(C(=O)NC(CC(=O)O)C(=O)O)cc3)ccc2n1` (centres undefined): the T/C reads like this: (dose: 0.13 mg/kg/injection, schedule: Q04DX003 (ip), vehicle: saline with Tween-80) 109 % of control; (dose: 0.25 mg/kg/injection, schedule: Q04DX003 (ip), vehicle: saline with Tween-80) 113 % of control; (dose: 0.5 mg/kg/injection, schedule: Q01DX009 (ip), vehicle: saline) 181 % of control; (dose: 1.0 mg/kg/injection, schedule: Q01DX009 (ip), vehicle: saline) 200 % of control; (dose: 1.0 mg/kg/injection, schedule: Q04DX003 (ip), vehicle: saline with Tween-80) 150 % of control; (dose: 1.56 mg/kg/injection, schedule: Q01DX009 (ip), vehicle: saline) 222 % of control. For the same compound, the T/C reads like this: (dose: 3.13 mg/kg/injection, schedule: Q01DX009 (ip), vehicle: saline) 259 % of control; (dose: 6.25 mg/kg/injection, schedule: Q01DX009 (ip), vehicle: saline) 90 % of control.

For the compound `CC(/C=C/c1ccc(Cl)cc1)=N\NC(N)=O`, the T/C is 94 % of control (dose: 60.0 mg/kg/injection, schedule: Q01DX005 (ip), vehicle: saline with Tween-80); 99 % of control (dose: 120.0 mg/kg/injection, schedule: Q01DX005 (ip), vehicle: saline with Tween-80); 99 % of control (dose: 240.0 mg/kg/injection, schedule: Q01DX005 (ip), vehicle: saline with Tween-80).

For `CCOC(=O)Nc1cc(NC/C(=N/O)c2ccc(OC)cc2)c([N+](=O)[O-])c(N)n1`, the T/C was 98 % of control under setting [9]; 94 % of control (dose: 25.0 mg/kg/injection, schedule: Q01DX005 (ip), vehicle: saline); 94 % of control (dose: 50.0 mg/kg/injection, schedule: Q01DX005 (ip), vehicle: saline).

Consider `c1cn[nH]c1`, for which the T/C was 93 % of control under setting [3], 101 % of control under setting [4] and 111 % of control under setting [5].

Consider `O/N=C1\CCC2CCCCC2C1` (centres undefined), for which the T/C reads like this: under setting [4], 103 % of control; under setting [5], 103 % of control; under setting [10], 104 % of control.

Consider `CC(=O)Nc1ccc(C(=O)O)c([N+](=O)[O-])c1`, for which the T/C by setting is: (dose: 25.0 mg/kg/injection, schedule: Q01DX009 (ip), vehicle: Klucel (hydroxypropylcellulose) (HPC)) 100 % of control; under setting [1], 107 % of control; under setting [2], 102 % of control; (dose: 200.0 mg/kg/injection, schedule: Q01DX009 (ip), vehicle: Klucel (hydroxypropylcellulose) (HPC)) 107 % of control.

Turning to `Cc1cc2c(cc1Cl)ncn2C`, the T/C is 96 % of control under setting [4], 112 % of control under setting [5] and 118 % of control under setting [10].
